{"source": "patent US20150285805A1", "about": "“BIOMARKERS OF MULTIPLE MYELOMA DEVELOPMENT AND PROGRESSION” (priority 2012, published 2015)", "key": {"T cells": {"system": "T cells", "details": "cited from earlier work"}, "[1]": {"details": "cited from earlier work"}, "MM cells": {"system": "MM cells", "details": "phosphocholine administration; cited from earlier work"}, "[2]": {"system": "microvascular endothelial cell", "details": "in vitro; cited from earlier work"}, "OPM2 myeloma cell line": {"system": "OPM2 myeloma cell line", "experiment": "AnnexinV-PI cytometry, apoptosis/viability upon LPC supplementation", "type": "cell-based", "details": "10 μM LPC, 24 h, vs vehicle", "description": "(§1) FIG. 5. Effects of LPC supplementation on MM cells viability. A) Viability of myeloma cell lines MM.1S or OPM2 or three samples of myeloma patient-derived CD138 positive cells upon 24 h incubation with vehicle or 10 μM LPC, as fold change of annexinV-propidium iodide double negative cells relative to vehicle alone. B) MTT assay of OPM2 cells upon 72 h supplementation with LPC, one representative experiment (n=6). Y axis: median 570-655 optic density (O.D.); error bars: standard deviation; asterisks: p<0.05 at two-tailed t-test for paired samples.\n(§2) Myeloma cell lines (OPM2 and MM.1S) were cultured in RPMI1640 media (Gibco), supplemented with glutamax (1 mM), penicillin (100 U/ml), and streptomycin (100 μg/ml). Primary MM cells were obtained by CD138 positive immunomagnetic selection (Miltenyi) from bone marrow mononuclear cells. CD138^+ cells were cultured in 10% FBS and IL-6 (2 ng/ml). Apoptosis was detected by AnnexinV-PI (BD) cytometry (AccuriC6 cytometer, analyzed with FCS-express). For MTT assays, OPM2 cells were cultured with or without 10 μM LPC and FCS, incubated with 5 mg/ml MTT (Sigma), dissolved with DMSO and measured for ABS at 570-655 nm with an ELISA reader (Biorad)."}, "MM.1S myeloma cell line": {"system": "MM.1S myeloma cell line", "experiment": "AnnexinV-PI cytometry, apoptosis/viability upon LPC supplementation", "type": "cell-based", "details": "10 μM LPC, 24 h, vs vehicle", "description": "as §1, §2"}, "[3]": {"system": "myeloma patient-derived CD138 positive cells", "experiment": "AnnexinV-PI cytometry, apoptosis/viability upon LPC supplementation", "type": "cell-based", "details": "10 μM LPC, 24 h, vs vehicle; three patient samples", "description": "as §1, §2"}, "OPM2 cells": {"system": "OPM2 cells", "experiment": "MTT assay upon LPC supplementation", "type": "cell-based", "details": "10 μM LPC, 72 h, with or without FCS; particularly upon serum starvation", "description": "as §1, §2"}}, "data": [{"compound": "Nc1c(O)cccc1C(=O)CC(N)C(=O)O", "note": "(stereo not shown) [3-hydroxykynurenine]", "values": [{"measurement": "T cell depletion", "setting": "T cells; in vitro and in vivo, transplanted mice", "value": "depleting in vitro and in vivo T cells"}, {"measurement": "mismatched allograft tolerance", "setting": "T cells; mouse, in vivo", "value": "promoting mismatched allograft tolerance"}]}, {"compound": "CNCC(=O)O", "note": "[Sarcosine, Sarcosine (N-Methylglycine)]", "values": [{"measurement": "cancer-promoting in vitro activities", "setting": "[1]", "value": "induction of migration, invasiveness, and up-regulation of pathogenic receptors"}]}, {"compound": "C[N+](C)(C)CCOP(=O)([O-])O", "note": "[phosphocholine]", "values": [{"measurement": "rescue of MM cells from the mevalonate pathway inhibitor apomine", "setting": "MM cells", "value": "can rescue MM cells"}]}, {"compound": "C3f: fragment of the C3 complement factor, sequence SSKITHRIHWESASLLR; detected fragment HWESASLL (listed as Homo sapiens)", "values": [{"measurement": "IGF1 signaling and microvascular endothelial cell proliferation", "setting": "[2]", "value": "actively modulate"}, {"measurement": "TGFβ-1 secretion by endothelial cells", "setting": "[2]", "value": "enhance TGFβ-1 secretion"}]}, {"compound": "lysophosphocholines [LPC]", "values": [{"measurement": "apoptosis (annexinV-propidium iodide)", "setting": "OPM2 myeloma cell line", "value": "decrease apoptosis"}, {"measurement": "apoptosis (annexinV-propidium iodide)", "setting": "MM.1S myeloma cell line", "value": "decrease apoptosis"}, {"measurement": "apoptosis (annexinV-propidium iodide)", "setting": "[3]", "value": "decrease apoptosis"}, {"measurement": "viability (MTT, 570-655 O.D.)", "setting": "OPM2 cells", "value": "increase viability"}]}]}
